Experimental data reported in patent publication US20210260069A1, “IRE1a INHIBITOR IN COMBINATION WITH CANCER [sequence] AGENT FOR CANCER TREATMENT” (Fosun Orinove PharmaTech, Inc., priority 2018, published 2021).
Read-outs that look alike come from different tables or passages of the source.

Assays:
IRE1α = target: T1, IRE1α (Mus musculus, UniProt Q9EQY0); assay: Liver PD screening assay: XBP-1 splicing analysis of liver after tunicamycin (Example 25); type: in vivo, BALB/c mice
T1 construct: from tissue; host or cells: liver of BALB/c mice (in vivo)
T1 sequence (Q9EQY0 21-977): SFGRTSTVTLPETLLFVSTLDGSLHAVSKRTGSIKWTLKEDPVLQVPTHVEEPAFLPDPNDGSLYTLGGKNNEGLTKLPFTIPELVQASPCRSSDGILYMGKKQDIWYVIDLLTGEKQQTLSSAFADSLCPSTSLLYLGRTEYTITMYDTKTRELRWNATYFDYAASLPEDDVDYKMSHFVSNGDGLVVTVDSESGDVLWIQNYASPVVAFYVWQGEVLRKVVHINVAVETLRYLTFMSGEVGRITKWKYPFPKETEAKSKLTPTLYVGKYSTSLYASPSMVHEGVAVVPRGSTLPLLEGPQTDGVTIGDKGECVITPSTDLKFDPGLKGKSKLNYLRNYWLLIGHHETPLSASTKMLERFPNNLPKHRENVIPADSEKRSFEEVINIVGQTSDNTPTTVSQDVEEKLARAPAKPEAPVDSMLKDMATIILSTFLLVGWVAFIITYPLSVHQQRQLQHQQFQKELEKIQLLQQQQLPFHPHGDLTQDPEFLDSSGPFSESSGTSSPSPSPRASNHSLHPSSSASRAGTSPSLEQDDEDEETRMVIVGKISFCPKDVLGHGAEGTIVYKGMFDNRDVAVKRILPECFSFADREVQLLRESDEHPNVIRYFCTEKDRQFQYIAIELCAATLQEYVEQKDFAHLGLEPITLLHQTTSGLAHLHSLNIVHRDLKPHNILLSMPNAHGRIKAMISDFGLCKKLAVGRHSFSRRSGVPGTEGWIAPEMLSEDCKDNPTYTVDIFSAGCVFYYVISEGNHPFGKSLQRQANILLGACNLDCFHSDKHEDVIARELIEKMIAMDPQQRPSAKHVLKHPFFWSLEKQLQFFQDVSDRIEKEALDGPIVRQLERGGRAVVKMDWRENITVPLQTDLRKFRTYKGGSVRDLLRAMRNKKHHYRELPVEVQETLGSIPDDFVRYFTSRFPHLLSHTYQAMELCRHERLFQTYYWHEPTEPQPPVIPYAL
Procedure: Example 25 was related to comparative PD/PK data of Orin 1001 VS compound 4315, as its structure shown below, which is an earlier lead of this series of compounds. Tunicamycin was used herein to activate IRE1, then Orin 1001 (also called 4485) or 4315 were given to inhibit the activating effect. […] Each gel panel represents one mouse liver sample as in the figure.
BALB/c mice were injected intraperitoneally with 100 microliters at an equivalent dose of 1 mg/kg tunicamycin solution. Two hours after tunicamycin injection, mice were dosed with compound of interest either PO or IV. Following 2 hours for PO delivery of compound, mice were euthanized according to IACUC protocols using CO2 from a […] source. A 1 cm^3 fragment of the liver for homogenization and extraction of the RNA were collected for further analysis. Total RNA is harvested from cells or tissue using TRIzol according to the manufacturer's procedures. After ethanol precipitation and resuspension of the RNA, RiboGreen (Invitrogen) is used to quantify the yield and normalize the RNA concentration in the source tube containing isolated RNA. RT-PCR is performed by Oligo(dT) priming, and SuperScript II (Invitrogen) transcription using the Amplitaq Gold Kit (Applied Biosystems) according to the manufacturer's protocols. Primers for human XBP-1 are 5_-[…]-3_ (forward, Seq ID No. 8) and 5_-[…]-3_ (reverse, Seq ID No. 9), and for mouse are 5_-[…]-3_ (forward, Seq ID No. 10) and 5_-[…]-3 (Seq ID No. 11). All DNA oligos were purchased from IDT DNA Technologies. PCR is run on a Bio-Rad PTC-100 96-well thermocycler with heating at 94° C. for 30 s, annealing at 58° C. for 30 s, and polymerizing at 72° C. for 30 s for 35 cycles. Reactions are run on 4% precast NuSieve gels from Cambrex and visualized by ethidium bromide staining and UV excitation.
(§1) All PK experiments are standard tests that performed in either WuXi PharmaTech or Charels River Laboratory. 4315 and 4485 (Orin 1001) were dosed PO as a suspension in 1% microcellulose (Sigma) and 50% Sucrouse (Sigma).

[1] = Oral bioavailability test, mouse; settings: in vivo, 5 mg/kg dose
Procedure: as §1

[2] = Oral bioavailability test, dog; settings: in vivo, 10 mg/kg dose
Procedure: as §1

[3] = Oral bioavailability test, rat; settings: in vivo, 10 mg/kg dose
Procedure: as §1

SMILES: Cc1c(-c2ccc(C(=O)NCCN3CCOCC3)cc2)c(=O)oc2c(C=O)c(O)ccc12 [compound 4315]
- ED50 (IRE1α; read-out: ED50 (inhibition of XBP-1 splicing in liver), PO, 2 hours after tunicamycin 1 mg/kg ip, liver 2 hours after dosing, FIG. 23): > 10 mg/kg
- ED50 (IRE1α; read-out: ED50 (inhibition of XBP-1 splicing in liver), separate experiment): 50 mg/kg
- bioavailability [1]: 23%
- bioavailability [2]: 17%
- bioavailability [3]: 36%
